Assay results: patent publication US20260152533A1, “COMBINATION INHIBITORS FOR TREATING FIBROSIS” (Memorial Sloan-Kettering Cancer Center, priority 2021, published 2026)
Entries after “also recorded” stand apart in the source; their conditions may differ.

Columns and labels:
NIH-3T3 cells [1] = assay: Western blot of NIH-3T3 cells (collagen I, GCN2, ATF4, PC); assay type: cell-based, mouse; conditions: for rescue of TGFβ-induced collagen I depletion: metabolite; for GCN2 activation: cell-permeable metabolite
Source text: PSCs were isolated from C57BL/6 mice by differential centrifugation as previously described^49 and their mesenchymal origin was validated by analyzing the expression of various mesenchymal and epithelial markers. MFBs were isolated from FVB/N mice by differential centrifugation as previously described^50. DB7 mouse breast cancer cells were obtained from Alexander Borowsky (University of California Davis Comprehensive Cancer Center, Sacramento, CA, USA) through an MTA to Ohio State University (OSU). KPC (Kras^LSL-G12D; Trp53^LSL-R172H; Pdx1-Cre) mouse PDAC cells were a gift from Scott Lowe (Memorial Sloan Kettering Cancer Center. (MSKCC)). All cells were cultured at 37° C. in 5% carbon dioxide (CO2) and 20% oxygen (O2) and were maintained in Dulbecco's Modified Eagles medium (DMEM) (25 mM D-glucose, 2 mM L-glutamine) supplemented with 10% fetal bovine serum (FBS) (Gemini), 100 units/ml penicillin and 100 μg/ml streptomycin. Primary PSC and MFB cells were kept in culture for no more than ten passages. Experiments with iCAFs and myCAFs were performed as previously described^29. In brief, qPSCs were generated by culturing PSCs in a dome of GFR Matrigel (Corning) in DMEM; iCAFs were generated by culturing PSCs in a dome of GFR Matrigel in DMEM conditioned by KPC cells for 48 h; myCAFs were generated by monolayer culture of PSCs. Differentiation was validated by analyzing the expression of iCAF/myCAF markers^29. For experiments with different glutamine concentrations, cells were seeded in regular DMEM and the medium was changed 5-6 hours later or the following day to glucose and glutamine-free DMEM supplemented with 10% dialyzed FBS (Gemini) and 20 mM D-glucose, 2 mM L-glutamine (100%), 0.4 mM L-glutamine (20%) or 0.2 mM L-glutamine (10%). All media were prepared by the Media Preparation Facility at MSKCC. Cells were verified as mycoplasma-free by the MycoAlert Mycoplasma Detection Kit (Lonza).
Lysates were generated by incubating cells or ground tumors in RIPA buffer (Millipore); […] of cleared lysate were analyzed by SDS-polyacrylamide gel electrophoresis (SDS-PAGE) as previously described^11. […] The following secondary antibodies were used: anti-rabbit horseradish peroxidase (HRP) (1:5,000; GE, NA934V), anti-mouse HRP (1:5,000; GE, NA931). Quantification of band intensities of collagen I relative to […] or vinculin in tumor allograft experiments was performed with Image Lab software v6.0 (Bio-Rad).

NIH-3T3 cells [2] = assay: Relative metabolite abundance (GC-MS), NIH-3T3 cells; assay type: cell-based, mouse; conditions: for TGFβ-induced depletion of TCA cycle intermediates and NEAAs: 10% Gln, metabolite 5 mM, 48 hours (FIG. 8I)
Method: Cells were plated in six-well cell culture plates at a concentration aimed to reach 0.5-1×10^6 cells at the time of harvest. For quantification of relative metabolite abundance, cells were cultured with glutamine-free DMEM containing different concentrations of L-glutamine and supplemented with 10% dialyzed FBS and in some experiments were treated with TGFβ for 48 hours. For the [U-^13C]and [3,4-^13C]glucose tracing experiments, cells were cultured as above, and in the last 8 hours media was replaced with DMEM without D-glucose and L-glutamine supplemented with 2 mM or 0.2 mM L-glutamine and 10 mM [U-^13C]or [3,4-^13C]D-glucose (Cambridge Isotope Laboratories) and 10% dialyzed FBS. […] For relative quantification of metabolites by gas chromatography-mass spectroscopy (GC-MS), cells were washed briefly with PBS, which was then fully aspirated and metabolism was quenched by immediately adding 1 mL of 80:20 methanol:water stored at −80° C. containing 20 μM deuterated 2-hydroxyglutarate (d5-2HG) as an internal standard. […]
GC-MS measurements were performed as described before^11. Ions used for quantification of metabolite levels were as follows: d5-2HG m/z 354; citrate m/z 465; alpha-ketoglutarate m/z 304; succinate m/z 247; fumarate m/z 245; malate m/z 335; aspartate m/z 232; hydroxyproline m/z 332; proline m/z 216; glutamate m/z 246; glutamine m/z 245; lactate m/z 219; pyruvate m/z 174. […] For relative quantification of cell samples, integrated peak areas were normalized to the internal standard d5-2HG and to the packed cell volume of each sample. Absolute quantification of hydroxyproline in tumor acid hydrolysates was performed against a standard curve of commercial trans-4-hydroxy-L-proline (Sigma). […]

[3] = PC-deleted cells, low Gln, 48 hours (FIG. 4B; MFBs FIG. 11E)
[4] = low Gln (10%), TGFβ, 48 hours (FIG. 1E)

Question: With `COC(=O)CC[C@H](N)C(=O)OC` [dm-Glu, L-glutamic acid dimethylester] as the compound, how does the “rescue of TGFβ-induced collagen I depletion” value (NIH-3T3 cells [1]; 10% Gln, TGFβ, 48 hours) read?
Answer: sufficient to restore

Question: What about the “collagen I levels” value (NIH-3T3 cells [1]; [3]) of the same compound?
Answer: increased

Question: And the GCN2 activation (NIH-3T3 cells [1]; low Gln (10%), TGFβ, 48 hours)?
Answer: prevented

Question: What about the “TGFβ-induced depletion of TCA cycle intermediates and NEAAs” value (NIH-3T3 cells [2]) of the same compound?
Answer: rescued

Question: What does the source list for `COC(=O)CCC(=O)C(=O)OC` [dm-αKG, dimethyl alpha-ketoglutarate]?
Answer: rescue of TGFβ-induced collagen I depletion (NIH-3T3 cells [1]; 10% Gln, TGFβ, 48 hours): able to rescue; collagen I levels (NIH-3T3 cells [1]; [3]): increased; GCN2 activation (NIH-3T3 cells [1]; low Gln (10%), TGFβ, 48 hours): prevented; also recorded: suppressed; TGFβ-induced depletion of TCA cycle intermediates and NEAAs (NIH-3T3 cells [2]): rescued

Question: Which results are given for “TGFβ: transforming growth-factor beta; TGFβ-1 purchased from Peprotech”?
Answer: collagen I production (NIH-3T3 cells [1]; 10% Gln, TGFβ): ceased to proliferate and produce collagen I; collagen I levels (NIH-3T3 cells [1]; 20% Gln, TGFβ, 48 hours (FIG. 1B)): no longer able to increase; repressive phosphorylation of the E1α subunit of the pyruvate dehydrogenase (PDH) complex (NIH-3T3 cells [1]; 100% Gln, TGFβ 48 hours (FIG. 3B)): reduced; collagen I levels in growing cells (NIH-3T3 cells [1]; 100% and 50% Gln, TGFβ, 48 hours): upregulated; PC protein levels (NIH-3T3 cells [1]; all fibroblast types analysed, TGFβ 48 hours): reduced; ATF4 (NIH-3T3 cells [1]; [4]): upregulated; GCN2 phosphorylation (NIH-3T3 cells [1]; [4]): displayed phosphorylation; free levels of most TCA cycle intermediates (NIH-3T3 cells [2]; low Gln (10%), TGFβ, 48 hours (FIG. 1H)): substantially reduced
